Experiments:
Epac2^Δ280,K450A = target: T1, Epac2^Δ280,K450A (Mus musculus, UniProt Q9EQZ6, K468A); experiment: Epac activation assay, Epac2 K450A mutant; type: biochemical
T1 construct: made in house
T1 sequence (Q9EQZ6 281-993 isoform Q9EQZ6-3 K450A): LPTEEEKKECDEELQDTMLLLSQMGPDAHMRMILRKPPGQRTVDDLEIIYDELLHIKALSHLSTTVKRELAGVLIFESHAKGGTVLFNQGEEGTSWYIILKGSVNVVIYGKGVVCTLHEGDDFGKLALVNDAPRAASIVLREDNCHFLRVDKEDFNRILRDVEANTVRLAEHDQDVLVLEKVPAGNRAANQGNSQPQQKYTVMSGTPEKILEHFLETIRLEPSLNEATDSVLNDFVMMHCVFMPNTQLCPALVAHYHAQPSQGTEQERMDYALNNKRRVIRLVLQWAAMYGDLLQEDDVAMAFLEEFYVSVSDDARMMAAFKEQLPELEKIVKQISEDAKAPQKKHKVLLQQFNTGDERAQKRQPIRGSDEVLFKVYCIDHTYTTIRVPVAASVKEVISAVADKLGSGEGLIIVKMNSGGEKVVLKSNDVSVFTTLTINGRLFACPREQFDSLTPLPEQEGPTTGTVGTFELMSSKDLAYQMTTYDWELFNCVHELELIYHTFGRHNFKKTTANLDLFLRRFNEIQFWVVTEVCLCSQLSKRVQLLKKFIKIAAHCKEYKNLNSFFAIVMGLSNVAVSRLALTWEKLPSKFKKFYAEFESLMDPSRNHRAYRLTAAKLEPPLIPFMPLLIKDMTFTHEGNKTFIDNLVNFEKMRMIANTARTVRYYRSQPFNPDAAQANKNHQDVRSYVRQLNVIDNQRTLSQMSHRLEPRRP
Description: Murine Epac2 was used as all previous structural studies were performed with it.
The activity of Epac was determined by a fluorescence assay. […] The fluorescence intensity of Rap1B•mGDP is approximately twice that of free mGDP, and thus, nucleotide exchange can be observed as a decay in fluorescence upon the addition of excess unlabeled GDP.

Epac1 = target: T2, Epac1 (Homo sapiens, UniProt O95398); experiment: Epac activation assay, Epac1; type: biochemical
T2 construct: made in house
T2 sequence (O95398 150-881 isoform O95398-3): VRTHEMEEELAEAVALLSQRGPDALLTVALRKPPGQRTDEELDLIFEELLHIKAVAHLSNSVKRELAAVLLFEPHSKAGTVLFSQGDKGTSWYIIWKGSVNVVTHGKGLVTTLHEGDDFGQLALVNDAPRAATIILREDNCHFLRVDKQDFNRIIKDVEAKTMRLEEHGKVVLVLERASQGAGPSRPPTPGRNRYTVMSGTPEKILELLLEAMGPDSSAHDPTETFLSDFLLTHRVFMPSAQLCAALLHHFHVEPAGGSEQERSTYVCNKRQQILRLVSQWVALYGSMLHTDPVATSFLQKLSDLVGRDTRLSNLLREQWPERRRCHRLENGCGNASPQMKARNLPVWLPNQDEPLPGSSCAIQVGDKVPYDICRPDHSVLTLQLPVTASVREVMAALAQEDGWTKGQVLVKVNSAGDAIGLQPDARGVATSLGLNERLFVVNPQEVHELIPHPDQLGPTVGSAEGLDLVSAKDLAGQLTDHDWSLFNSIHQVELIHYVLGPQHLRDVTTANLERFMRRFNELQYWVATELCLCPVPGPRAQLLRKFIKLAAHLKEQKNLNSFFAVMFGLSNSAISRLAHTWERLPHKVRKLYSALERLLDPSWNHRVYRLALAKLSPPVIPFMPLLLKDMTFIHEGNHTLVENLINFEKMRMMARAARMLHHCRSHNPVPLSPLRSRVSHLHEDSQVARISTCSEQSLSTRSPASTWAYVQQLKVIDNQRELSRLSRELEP

**Q.** Which results are given for Nc1ncnc2c1ncn2[C@@H]1O[C@@H]2COP(=O)(O)O[C@H]2[C@H]1O [cAMP, reference compound]?
**A.** kobs (Epac2^Δ280,K450A; 0.01 μM compound): 2.72e-05 s⁻¹; kobs (Epac2^Δ280,K450A; 0.05 μM compound): 4e-05 s⁻¹; kobs (Epac2^Δ280,K450A; 0.08 μM compound): 5.02e-05 s⁻¹; kobs (Epac2^Δ280,K450A; 0.1 μM compound): 5.2e-05 s⁻¹; kobs (Epac2^Δ280,K450A; 0.2 μM compound): 8.53e-05 s⁻¹; kobs (Epac2^Δ280,K450A; 0.3 μM compound): 0.000105 s⁻¹; kobs (Epac2^Δ280,K450A; 0.4 μM compound): 0.000119 s⁻¹; kobs (Epac2^Δ280,K450A; 0.5 μM compound): 0.000137 s⁻¹; kobs (Epac2^Δ280,K450A; 0.6 μM compound): 0.000149 s⁻¹; kobs (Epac2^Δ280,K450A; 0.7 μM compound): 0.000155 s⁻¹; kobs (Epac2^Δ280,K450A; 0.8 μM compound): 0.000159 s⁻¹; kobs (Epac2^Δ280,K450A; 1 μM compound): 0.000183 s⁻¹; kobs (Epac2^Δ280,K450A; 2 μM compound): 0.000228 s⁻¹; kobs (Epac2^Δ280,K450A; 3 μM compound): 0.000276 s⁻¹; kobs (Epac2^Δ280,K450A; 4 μM compound): 0.000288 s⁻¹; kobs (Epac2^Δ280,K450A; 5 μM compound): 0.000293 s⁻¹; kobs (Epac2^Δ280,K450A; 6 μM compound): 0.0003 s⁻¹; kobs (Epac2^Δ280,K450A; 7 μM compound): 0.000286 s⁻¹; kobs (Epac2^Δ280,K450A; 8 μM compound): 0.0003 s⁻¹; kobs (Epac2^Δ280,K450A; 10 μM compound): 0.000289 s⁻¹; kobs (Epac2^Δ280,K450A; 20 μM compound): 0.000309 s⁻¹; kobs (Epac2^Δ280,K450A; 30 μM compound): 0.000319 s⁻¹; kobs (Epac2^Δ280,K450A; 40 μM compound): 0.000313 s⁻¹; kobs (Epac2^Δ280,K450A; 50 μM compound): 0.000318 s⁻¹; kobs (Epac2^Δ280,K450A; 60 μM compound): 0.00031 s⁻¹; kobs (Epac2^Δ280,K450A; 70 μM compound): 0.000323 s⁻¹; kobs (Epac2^Δ280,K450A; 80 μM compound): 0.000319 s⁻¹; kobs (Epac2^Δ280,K450A; 100 μM compound): 0.000327 s⁻¹; kobs (Epac1; 0.01 μM compound): 1.1e-05 s⁻¹; kobs (Epac1; 0.05 μM compound): 1.4e-05 s⁻¹; kobs (Epac1; 0.08 μM compound): 2.5e-05 s⁻¹; kobs (Epac1; 0.1 μM compound): 2.8e-05 s⁻¹; kobs (Epac1; 0.3 μM compound): 3e-05 s⁻¹; kobs (Epac1; 0.5 μM compound): 3.8e-05 s⁻¹; kobs (Epac1; 0.8 μM compound): 4.7e-05 s⁻¹; kobs (Epac1; 1 μM compound): 5e-05 s⁻¹; kobs (Epac1; 2 μM compound): 6.1e-05 s⁻¹; kobs (Epac1; 3 μM compound): 9.3e-05 s⁻¹; kobs (Epac1; 4 μM compound): 0.000116 s⁻¹; kobs (Epac1; 5 μM compound): 0.000161 s⁻¹; kobs (Epac1; 6 μM compound): 0.000161 s⁻¹; kobs (Epac1; 7 μM compound): 0.000189 s⁻¹; kobs (Epac1; 8 μM compound): 0.00021 s⁻¹; kobs (Epac1; 10 μM compound): 0.000256 s⁻¹; kobs (Epac1; 20 μM compound): 0.000421 s⁻¹; kobs (Epac1; 30 μM compound): 0.000589 s⁻¹; kobs (Epac1; 40 μM compound): 0.000692 s⁻¹; kobs (Epac1; 50 μM compound): 0.000746 s⁻¹; kobs (Epac1; 60 μM compound): 0.000796 s⁻¹; kobs (Epac1; 70 μM compound): 0.000848 s⁻¹; kobs (Epac1; 80 μM compound): 0.000859 s⁻¹; kobs (Epac1; 100 μM compound): 0.000937 s⁻¹; kobs (Epac1; 200 μM compound): 0.00112 s⁻¹; kobs (Epac1; 400 μM compound): 0.0012 s⁻¹; kobs (Epac1; 600 μM compound): 0.00116 s⁻¹; kobs (Epac1; 800 μM compound): 0.00118 s⁻¹; share of cAMP bound protein still in an inactive conformation (Epac1; Epac1, assuming the most efficient activators shift the equilibrium fully): about 65%
